{"source": "patent US7148204B2", "about": "“Antisense modulation of bcl-x expression” (Isis Pharmaceuticala, Inc., priority 1998, dated 2006)", "key": {"bcl-xl protein": {"tested_on": "bcl-xl protein", "assay": "Immunoblot of bcl-xl protein in CEM cells", "format": "cell-based, human", "experimental": "(§1) Postnuclear detergent lysates were prepared as described by Reed et al. (Cancer Res., 1991, 51, 6529–6538), and the protein concentration was determined using a Bradford method protein assay kit (Bio-Rad, Hercules, Calif.). Protein (20 μg) was loaded in each lane, followed by electrophoresis on a 12% sodium dodecyl sulfate-polyacrylamide gel, followed by immunoblotting (Winston et al., 1993). The primary antibody was a 0.4 μg/ml dilution of the mouse monoclonal anti-human bcl-2 (clone 124, Dako, Carpinteria, Calif.), a 4.0 μg/ml dilution of the rabbit polyclonal anti-human bcl-xs/l (Dako), or a 0.3 μg/ml dilution of rabbit polyclonal anti-human Bax (N-20, Santa Cruz Biotechnology, Santa Cruz, Calif.). For development and STORM fluorescent imaging, the secondary antibody was peroxidase-conjugated sheep anti-mouse or donkey anti-rabbit (Amersham, Little Chalfort, UK). Chemiluminescence imaging and quantification were preformed using the STORM instrument and ImageQuant software (Molecular Dynamics, Sunnyvale, Calif.)."}, "bcl-x": {"tested_on": "bcl-x", "assay": "bcl-x protein in SEM-K2 cells by flow cytometry", "format": "cell-based, human", "conditions": "10 μM without cationic lipid, 48 hours after initial treatment", "experimental": "SEM-K2 is a human cell line derived from a patient suffering from a t(4;11) acute lymphoblastic leukemia. Pocock, C. F. E. et al., Br. J. Haematol. (1995), 90(4), 855–67. SEM-K2 cells in exponential phase of growth were maintained in […] medium (Life Technologies, Inc., Gaithersburg, Md.) supplemented with 10% fetal bovine serum, 2 mM glutamine and penicillin/streptomycin, at 37°C. in 5%CO2/95% air. Cells were transferred in 1 mL volumes at approximately 1–5×10^6 cells/ml to 24-well plates. After one hour, 10 μM of ISIS 15999 or scrambled control 15691 ([…]; SEQ ID No. 41) was added to wells, without cationic lipid. At 24 hours and 48 hours repeat doses of 5 μM oligonucleotide were added. […]\nFor Western blot and flow cytometric protein analysis, cells were washed once in phosphate-buffered saline and pelleted by centrifugation at 1200 rpm for 5 minutes, and resuspended in cell lysis buffer (5M NaCl, 0.1 M HEPES, 500 mM sucrose, 0.5M EDTA, 100 mM spermine, 1 mg/ml aprotinin, 10% Triton X-100) for 15 minutes on ice. Total protein was quantified spectrophotometrically (BioRad) and 100 μg lysate was loaded onto 15% polyacrylamide gels and run at 200V for 45 minutes. […] Cells were analyzed using a FACScalibur™ running Cellquest software (Becton Dickinson, Franklin Lakes, N.J.). […] Fluorescence detector 1 was used with logarithmic amplification for detection of FITC fluorescence. […]"}, "CEM-C7 cells": {"tested_on": "CEM-C7 cells", "assay": "Viable cell counts of CEM cells (propidium iodide exclusion, flow cytometry)", "format": "cell-based, human", "conditions": "for viability by propidium iodide exclusion: 20 μM electroporation", "experimental": "CEM-C7 cells (Norman et al., 1978), a glucocortocoid sensitive clone of the human T-lymphoblastic cell line CEM, were cultured between 5×10^4 to 10^6 cells/ml in RPMI 1640 medium containing 10% heat-inactivated fetal bovine serum (FBS), streptomycin, penicillin G, 15 mM HEPES, 2 mM sodium pyruvate, at 37° C. in a humid, 5% CO2 incubator. Viable cell counts were performed by propidium iodide staining and flow cytometry.\nCEM-C7 cells were electroporated with the indicated concentrations of oligonucleotides at 150 volts, 1,700 microFaraday (μF), and a resistance setting of 5 with a BTX electroporation apparatus (Genetronics, San Diego, Calif.) in 2-mm gap cuvettes containing 5×10^6 cells in 200 μl RPMI plus 20% FBS on ice. Cells were left on ice for 10 minutes, then plated in 5 ml complete media."}, "bcl-2 protein": {"tested_on": "bcl-2 protein", "assay": "Immunoblot of bcl-2 protein in CEM cells", "format": "cell-based, human", "conditions": "even at the highest concentration", "experimental": "as §1"}, "human bcl-x mRNA": {"tested_on": "human bcl-x mRNA", "assay": "Northern blot analysis of bcl-x mRNA levels in A549 cells", "format": "cell-based", "experimental": "Eighteen hours after antisense treatment, cell monolayers were washed twice with cold PBS and lysed in 1 mL RNAZOL™ (TEL-TEST “B” Inc., Friendswood, Tex.). Total RNA was prepared following manufacturer's recommended protocols. Twenty micrograms of total RNA was fractionated by electrophoresis through 1.2% agarose gels containing 1.1% formaldehyde using a MOPS buffer system (AMRESCO, Inc. Solon, Ohio). RNA was transferred from the gel to HYBOND™-N+ nylon membranes (Amersham Pharmacia Biotech, Piscataway, N.J.) by overnight capillary transfer using a Northern/Southern Transfer buffer system (TEL-TEST “B” Inc., Friendswood, Tex.). RNA transfer was confirmed by UV visualization. Membranes were fixed by UV cross-linking using a STRATALINKER™ UV Crosslinker 2400 (Stratagene, Inc, La Jolla, Calif.).\nMembranes were probed using QUICKHYB™ hybridization solution (Stratagene, La Jolla, Calif.) using manufacturer's recommendations for stringent conditions with an 822-base pair bcl-x specific probe prepared by PCR from bases 33–855 of human bcl-xl sequence (Boise et al., 1993, Cell 74:597–608; GenBank accession no. L20121). To normalize for variations in loading and transfer efficiency membranes were stripped and probed for glyceraldehyde-3-phosphate dehydrogenase (GAPDH) RNA (Clontech, Palo Alto, Calif.). Hybridized membranes were visualized and quantitated using a PHOSPHORIMAGER™ and IMAGEQUANT™ Software V3.3 (Molecular Dynamics, Sunnyvale, Calif.). Data was normalized to GAPDH levels in untreated controls.\nOligonucleotides were tested by Northern blot analysis as described in Example 14. Oligonucleotides were tested in A549 cells at a concentration of 400 nM. The results are Table 2:\nOligonucleotides were tested by Northern blot analysis as described in Example 14. Chimeric oligonucleotides were in A549 cells at a concentration of 200 nM. Where present, “N.D.” indicates “not determined”."}}}
{"sequence": "TCCCGGTTGCTCTGAGACAT (5-10-5 2'-MOE gapmer, phosphorothioate, further chemistry not given here) [ISIS 15999]", "values": [{"measurement": "level of bcl-xl protein", "setting": "bcl-xl protein", "result": "dose dependent decrease"}, {"measurement": "reduction in bcl-x (median fluorescence intensity)", "setting": "bcl-x", "result": 50, "unit": "%"}, {"measurement": "viability by propidium iodide exclusion", "setting": "CEM-C7 cells; CEM cells, 48 hours", "result": 33, "unit": "%"}, {"measurement": "viability by propidium iodide exclusion", "setting": "CEM-C7 cells; CEM cells, 72 hours", "result": 46, "unit": "%"}, {"measurement": "cell count less than control antisense treated cells", "setting": "CEM-C7 cells; CEM cells, highest concentration, 20 hours after electroporation", "result": 40, "unit": "%"}, {"measurement": "viability of CEM cells", "setting": "CEM-C7 cells; twenty hours after electroporation", "result": "dose dependent decrease"}, {"measurement": "bcl-2 protein levels", "setting": "bcl-2 protein", "result": "did not decrease"}, {"measurement": "reduction of bcl-x mRNA levels", "setting": "human bcl-x mRNA; 25 nM (lowest dose tested)", "result": "approximately 70%"}, {"measurement": "inhibition of bcl-x mRNA", "setting": "human bcl-x mRNA; 50 nM to 200 nM", "result": "greater than 90%"}, {"measurement": "bcl-x mRNA at the highest dose", "setting": "human bcl-x mRNA; 200 nM", "result": "nearly complete ablation"}, {"measurement": "IC50", "setting": "human bcl-x mRNA; dose-response, Northern blot", "result": "< 25", "unit": "nM"}]}
